These results are taken from ChEMBL document CHEMBL1201862, “PubChem BioAssay data set” (2004).

Molecules are shown by their SMILES.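 Where inhibition never reached the appropriate level, the endpoint shown equals the highest concentration tested. Otherwise, values were interpolated linearly from a five-concentration, 48-hour dose response in 96-well plates. Here, GI50 denotes the concentration required for 50% inhibition of growth.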 The source made the active and inactive calls. No stated cut-off is given here; in the data, active = GI50 up to about 1.1 µM and inactive = higher. A value given as a limit tells only on which side of the number the result lay.

Common to all, as to assay: inhibition of tumour cell growth, NCI panel, 48 h
The test system of assay [1] is NCI-H460.
Assay [2] concerns SK-OV-3.
Assay [3] concerns DU-145.
For assay [4], the system named is TK-10.
Assay [5] has as its system MDA-MB-231.
In assay [6] the test system is RXF 393.
Assay [7] has as its system SK-MEL-28.
For assay [8], the system named is MDA-N.
Assay [9] deals with Malme-3M.
The test system of assay [10] is HOP-62.
Assay [11] deals with SK-MEL-5.
Assay [12] relates to KM12.
For assay [13], the system named is HCC 2998.
The subject of assay [14] is UO-31.
For assay [15], the system named is SF-539.
Assay [16] deals with ACHN.
Assay [17] deals with SR.
The subject of assay [18] is HOP-92.
The subject of assay [19] is OVCAR-4.
Assay [20] concerns COLO 205.

On to `O=C1c2ccccc2C(=O)c2c(NCCCNCCO)ccc(NCCCNCCO)c21`, for which the GI50 in [1] is 3.8 µM (inactive); in assay [2], 14.6 µM (inactive); in assay [3], 10.2 µM (inactive); in [4], 16 µM (inactive); in assay [5], 11.6 µM (inactive); in assay [6], 4.69 µM (inactive). The GI50 in assay [7] is 12 µM (inactive); in [8] it was 7.48 µM (inactive); in assay [9], 13.9 µM (inactive); in assay [10], 5.35 µM (inactive); in [11], 13.4 µM (inactive); in assay [12] it was 5.57 µM (inactive). For the same compound, the GI50 in [13] is 5.37 µM (inactive); in assay [14], 13.1 µM (inactive); in assay [15], 4.24 µM (inactive); in [16], 4.51 µM (inactive); in [17], 3.65 µM (inactive); in assay [18] it was 10.7 µM (inactive). Moreover, the GI50 was 9.82 µM (inactive) in assay [19] and 5.85 µM (inactive) in [20].
`O=[N+]([O-])c1ccc(NN/N=N/c2ccc(-c3nc4ccccc4[nH]3)cc2)c([N+](=O)[O-])c1`: the GI50 is 9.44 µM (inactive) in assay [1]; 94.6 µM (inactive) in assay [2]; 66.1 µM (inactive) in assay [3]; > 100 µM (inactive) in assay [4]; > 100 µM (inactive) in assay [5]; 47.3 µM (inactive) in assay [6]. For the same compound, the GI50 in [7] is > 100 µM (inactive); in [8] it was 39.9 µM (inactive); in assay [9] it was 75 µM (inactive); in assay [10], 42.6 µM (inactive); in [11], 10.4 µM (inactive); in assay [12], 31.9 µM (inactive). Further, the GI50 in [13] is 31 µM (inactive); in assay [14], 84.1 µM (inactive); in [15] it was 40.9 µM (inactive); in assay [16], 19.4 µM (inactive); in assay [17] it was 2.74 µM (inactive); in assay [18] it was 43.8 µM (inactive). The GI50 was 28.6 µM (inactive) in [19] and 27.7 µM (inactive) in assay [20].
In the case of `N=C(N)SCCCN`, the GI50 was 4.13 µM (inactive) in assay [1]; 22.4 µM (inactive) in assay [2]; 20.4 µM (inactive) in [3]; 3.65 µM (inactive) in assay [4]; 3.3 µM (inactive) in assay [5]; 4.29 µM (inactive) in assay [6]. Also, the GI50 in assay [7] is 28.2 µM (inactive); in assay [8] it was 3.95 µM (inactive); in [9], 8.77 µM (inactive); in [10] it was 12.1 µM (inactive); in assay [11], 15 µM (inactive); in assay [12], 24.2 µM (inactive). The GI50 in assay [13] is 0.0455 µM (active); in [14], 17.7 µM (inactive); in assay [15], 5.81 µM (inactive); in assay [16], 4.29 µM (inactive); in [17], 3.3 µM (inactive); in assay [18], 4.94 µM (inactive). Further, the GI50 in assay [19] is 6.5 µM (inactive); in [20], 13.7 µM (inactive).
For the compound `CCOC(=O)C(NC(=O)CC(C)C)(N1CCN(c2cc3c(cc2F)c(=O)c(C(=O)O)cn3C2CC2)CC1)C(F)(F)F` (stereo not given), the GI50 in assay [1] was 28.1 µM (inactive); in assay [2], 24 µM (inactive); in [3] it was 34.4 µM (inactive); in assay [4], 10.3 µM (inactive); in [5] it was 22 µM (inactive); in assay [6], 17.2 µM (inactive). Besides, the GI50 was 20.9 µM (inactive) in [7]; 20.3 µM (inactive) in assay [8]; 17.6 µM (inactive) in [9]; 36.6 µM (inactive) in assay [10]; 12.7 µM (inactive) in assay [11]; 13.6 µM (inactive) in assay [12]. In addition, the GI50 was 12 µM (inactive) in assay [13]; 17.9 µM (inactive) in assay [14]; 17.5 µM (inactive) in assay [15]; 12.5 µM (inactive) in [16]; 11.6 µM (inactive) in assay [17]; 9.57 µM (inactive) in assay [18]. The GI50 in assay [19] was 20.8 µM (inactive); in assay [20], 16.7 µM (inactive).
In the case of `CN(/N=C(\C(=O)O)c1ccccc1)C1=NCCN1`, the GI50 in [1], in assay [2], in assay [3], in assay [4], in assay [5] and in assay [6] was > 100 µM (inactive) throughout. Moreover, the GI50 in assay [7], in assay [8], in assay [9], in [10], in [11] and in [12] was > 100 µM (inactive) throughout. The GI50 in [13], in assay [14], in assay [15], in assay [16], in assay [17] and in [18] was > 100 µM (inactive) in each case. The GI50 in [19] and in assay [20] was > 100 µM (inactive) in each case.
Take `Cc1cccc(C)c1NC(=O)C(C#N)C1=C(Cl)C(=O)c2ccccc2C1=O` (stereo not given): the GI50 in assay [1] was 22.1 µM (inactive); in assay [2] it was 20.9 µM (inactive); in [3], 14.5 µM (inactive); in assay [4] it was 19.5 µM (inactive); in assay [5], 18.6 µM (inactive); in assay [6], > 32.8 µM (inactive). Also, the GI50 is 20.2 µM (inactive) in [7]; 14.4 µM (inactive) in [8]; 15.2 µM (inactive) in assay [9]; 18 µM (inactive) in assay [10]; 13 µM (inactive) in [11]; 16.8 µM (inactive) in assay [12]. Further, the GI50 in assay [13] was 17.8 µM (inactive); in [14], 13.6 µM (inactive); in assay [15], 21.4 µM (inactive); in assay [16] it was 15.2 µM (inactive); in [17] it was 2.31 µM (inactive); in assay [18] it was 10.2 µM (inactive). In addition, the values for the GI50 in assay [19] and in assay [20] were 16 µM (inactive) and 6.35 µM (inactive), respectively.
Consider `O=c1c(=O)c2cscc2c1=O`, for which the GI50 in [1] was 7.76 µM (inactive); in assay [2], > 25 µM (inactive); in [3], 5.33 µM (inactive); in assay [4] it was 4.56 µM (inactive); in [5], 5.14 µM (inactive); in assay [6], 4.74 µM (inactive). For the same compound, the GI50 in assay [7] is 4.53 µM (inactive); in [8] it was 4.99 µM (inactive); in assay [9] it was 4.39 µM (inactive); in [10] it was 5.15 µM (inactive); in [11], 4.42 µM (inactive); in assay [12] it was 5.15 µM (inactive). The GI50 in [13] was 2.92 µM (inactive); in assay [14], 4.75 µM (inactive); in assay [15], 4.95 µM (inactive); in [16] it was 4.69 µM (inactive); in [17] it was 0.137 µM (active); in assay [18], 5.47 µM (inactive). In addition, the values for the GI50 in [19] and in assay [20] were 4.99 µM (inactive) and 4.73 µM (inactive), respectively.
Regarding `COC(=O)c1c(O)ccc2c1c1c(n2CCc2ccccc2)C(=O)c2ccccc2C1=O`, the GI50 in [1] was 4.11 µM (inactive); in [2], 18.3 µM (inactive); in [3], 14.4 µM (inactive); in assay [4], 11.6 µM (inactive); in assay [5], 14.6 µM (inactive); in assay [6], 13.3 µM (inactive). The GI50 in [7] is 16 µM (inactive); in [8], 10.2 µM (inactive); in assay [9], 12.1 µM (inactive); in assay [10], 21.4 µM (inactive); in assay [11], 12.5 µM (inactive); in [12], 12.2 µM (inactive). Also, the GI50 in assay [13] was 2.48 µM (inactive); in assay [14] it was 10.8 µM (inactive); in assay [15] it was 16.7 µM (inactive); in assay [16], 11.9 µM (inactive); in assay [17], 5.28 µM (inactive); in assay [18], 16.3 µM (inactive). In addition, the GI50 in [19] is 6.79 µM (inactive); in assay [20] it was 1.83 µM (inactive).
For `CC(C)Oc1cccc(N2C(CCc3c[nH]c4ccc(Br)cc34)=NS(=O)(=O)c3cnccc32)c1`, the GI50 in assay [1] is 35.1 µM (inactive); in [2], 36.8 µM (inactive); in assay [3], 94.4 µM (inactive); in assay [4] it was 53.8 µM (inactive); in [5] it was > 100 µM (inactive); in assay [6], 59.8 µM (inactive). In addition, the GI50 is > 100 µM (inactive) in assay [7]; 37.3 µM (inactive) in [8]; 80 µM (inactive) in assay [9]; 94 µM (inactive) in assay [10]; 35 µM (inactive) in assay [11]; 49.7 µM (inactive) in [12]. For the same compound, the GI50 in assay [13] was 60.4 µM (inactive); in [14] it was 3.64 µM (inactive); in assay [15] it was 75.7 µM (inactive); in assay [16] it was 28.7 µM (inactive); in [17], 35.3 µM (inactive); in assay [18], 17.5 µM (inactive). In addition, the GI50 is 27.5 µM (inactive) in [19] and 17.9 µM (inactive) in assay [20].
For `O=C1/C(=C/c2ccc(Cl)cc2)N=C(c2ccccc2)N1c1ccc(S(=O)(=O)Nc2nccs2)cc1`, the GI50 in [1] was 57.1 µM (inactive); in assay [2], > 100 µM (inactive); in assay [3] it was > 100 µM (inactive); in assay [4], 70.5 µM (inactive); in assay [5] it was 18.9 µM (inactive); in assay [6] it was 33.4 µM (inactive). The GI50 in assay [7] was 30.4 µM (inactive); in [8], 26 µM (inactive); in assay [9], 30.9 µM (inactive); in assay [10] it was 62.2 µM (inactive); in assay [11], 23.1 µM (inactive); in assay [12], 24.8 µM (inactive). The GI50 in assay [13] is 18.9 µM (inactive); in assay [14], 23.6 µM (inactive); in [15], 88.3 µM (inactive); in assay [16], 62.5 µM (inactive); in assay [17], 32.7 µM (inactive); in assay [18] it was 28.9 µM (inactive). The GI50 was 50.8 µM (inactive) in [19] and 20.6 µM (inactive) in assay [20].
